The text below walks through data of publication PMC4626104, “Inhibition on Proteasome β1 Subunit Might Contribute to the Anti-Cancer Effects of Fangchinoline in Human Prostate Cancer Cells” (PLoS ONE, 2015).

In test [1] the target is T1, recombinant human proteasome β1 subunit (Homo sapiens, UniProt P28072).
T1 construct: His-Tag; made in house; host or cells: Escherichia coli
T1 sequence (P28072 1-239): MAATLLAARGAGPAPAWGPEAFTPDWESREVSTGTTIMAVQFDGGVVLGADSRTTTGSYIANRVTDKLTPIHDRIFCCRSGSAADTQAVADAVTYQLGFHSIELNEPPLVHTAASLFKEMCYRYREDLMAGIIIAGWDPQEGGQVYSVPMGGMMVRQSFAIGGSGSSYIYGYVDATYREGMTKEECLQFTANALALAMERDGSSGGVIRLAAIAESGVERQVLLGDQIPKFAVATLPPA
Briefly: Enzyme activity of recombinant proteasome catalytic β1 subunit (Z-LLE-AMC). The format is biochemical. The note with it: 50 μM Z-LLE-AMC, 2 h incubation. The protocol:
Briefly, catalytic activity of the recombinant human proteasome β1 subunit was assayed by adding recombinant β1 subunit protein (30 μg) to 100 μL of proteasome activity assay buffer (10 mM Tris-HCL, pH 7.8, 5 mM adenosine triphosphate, 0.5 mM dithiothreitol and 5 mM MgCL2•6H2O) containing 50 μM Z-LLE-AMC in the presence of fangchinoline or tetrandrine at different concentrations or not. The hydrolase activity of the proteasome catalytic β1 subunit could release the fluorogenic AMC component from substrate Z-LLE-AMC and the AMC release was measured after 2 h incubation using a Microplate Reader Bio-Rad 550 with excitation and emission wavelengths of 360 and 465 nm, respectively.

Test [2] concerns LnCap cells. The test can be described thus: MTT assay of cell proliferation, LnCap cells. The note with it: Homo sapiens, read-out: IC50 inhibiting cell proliferation. Format: cell-based. The method, then:
The inhibitive effects of fangchinoline on proliferation of PC-3 cells or LnCap cells was observed by checking cell viability of cells using MTT assay as described before. Briefly, cells were seeded in 96-well plates at a density of 5×10^4 cells/mL for PC-3 cell and 4×10^4 cells/mL for LnCap cells. After overnight culture, the media were changed into fresh media containing various concentrations of fangchinoline or 0.1% DMSO (solvent control) for 24, 48 h or 72 h. Cell viability was evaluated by measuring the mitochondrial-dependent conversion of the yellow tetrazolium salt MTT to purple formazan crystals by metabolic active cells. The optical density (proportional to the number of live cells) was assessed with a Microplate Reader Bio-Rad 550 at 570 nm. IC50 value (half-maximal inhibitory concentration) was calculated by the Logit method.

Test [3] has as its target T2, purified human erythrocyte 20S proteasome (Homo sapiens, UniProt P28072).
T2 construct: purchased Enzo Life Sciences, Inc; host or cells: human erythrocytes
The test can be described thus: C-L activity of purified human 20S proteasome. Format: biochemical. The method, then: The 20S proteasome assay kit was bought from Enzo Life Sciences, Inc. (Farmingdale, NY 11735, USA). The Km, Vmax values of the purified human erythrocyte 20S proteasome for fluorigenic peptide substrate Z-LLE-AMC are measured according to the instructions provided by the manufacturer. Inactivation of purified human erythrocyte 20S proteasome by fangchinoline was determined by monitoring the hydrolysis of substrate in the presence of different concentrations of fangcinoline. Assays were performed at 37°C in a reaction buffer (50 μL) containing 50 mM Tris/HCL, pH 7.5, 25 mM KCL, 10 mM NaCL, 1 mM MgCL2, 0.1 μg 20S proteasome and Z-LLE-AMC. Reactions were allowed to proceed for 120 min, and fluorescence data were collected every 1 min, and then plotted as a function of time. The apparent dissociation constant, Ki ^app, was determined by non-linear least-fit of the fractional velocity, vi/v0, as a function of [I], where vi is the steady state residual activity of the enzyme in the presence of inhibitor (I) and v0 is the initial velocity in the absence of inhibitor ( Vi/V0=1/1+[I]/Kiapp ). The dissociation constant, Ki, was calculated from the apparent dissociation constant, Ki ^app, using the following expression, where [S] is the substrate concentration and Km is the substrate binding constant ( Ki=Kiapp/1+[S]/Km ).

For test [4], the system named is caspase-3, PARP, LC-3B in PC-3 cells. Briefly: Western blotting of apoptosis and autophagy markers in PSMB6 knockdown PC-3 cells. Format: cell-based, human. The note with it: 40 μM, 24 h. The method, then: Western blotting assay was conducted as described before. Briefly, an aliquot of protein (100 μg) sample was loaded onto a 12% SDS gel, separated electrophoretically, and transferred to a Nitrocellulose membrane (Bio-Rad). After the membrane was incubated with 10 mM TBS with […] and 5% dehydrated skim milk to block nonspecific protein binding, the membrane was incubated with primary antibodies overnight at 4°C. The primary antibodies (all from Cell Signaling Technology) used were rabbit polyclonal antibody against human IκB-α (#4812, 1:400), Bax (#2772, 1:400), proteasome β1 subunit (PSMB6) (#13267, 1:500), β-actin (#4967, 1:400) and mouse monoclonal antibody against human p27 Kip1 (#3688, 1:400) or ubiquitin (#3936, 1:1000). After TBS washes, blots were then incubated with secondary antibody for 2 h at room temperature at a 1:1000 dilution and then visualized using chemiluminescence (Pierce Biotechnology, Rockford, IL, USA). The secondary antibodies used were HRP-linked goat anti-rabbit IgG (#7074) and HRP-linked horse anti-mouse IgG (#7076), both from Cell Signaling Technology.
Validated siRNAs for PSMB6 (Sigma-Aldrich) were transfected into PC-3 cells by using Lipofectamine RNAiMAX (Invitrogen) according to the manufacturer’s protocol. Scrambled negative control siRNAs (Sigma-Aldrich) were used as negative control. […]

Read-outs that look alike come from different tables or passages of the source.

As to `COc1ccc2cc1Oc1ccc(cc1)C[C@H]1c3cc(c(OC)cc3CCN1C)Oc1c(O)c(OC)cc3c1[C@H](C2)N(C)CC3` [fangchinoline], the “Inhibition of enzyme activity of recombinant proteasome β1 subunit” value in test [1] is listed as “dose-dependently inhibited”. In addition, the results for the IC50 in test [2] (24 h), in test [2] (48 h) and in test [2] (72 h) were 36.2 ± 6.33 µM, 11.6 ± 0.22 µM and 12.7 ± 0.59 µM, respectively. The “Hydrolysis of substrate Z-LLE-AMC by 20S proteasome” value in test [3] (500 μM fangchinoline, 75 μM Z-LLE-AMC) is reported as “partly inhibited”. In test [3] (substrate Z-LLE-AMC, 37°C), this compound came in with a Ki of 357 ± 30.6 µM. The “Effect of knockdown of proteasome β1 subunit on markers of apoptosis (caspase-3, PARP) and autophagy (LC-3B)” value in test [4] was “ameliorated fangchinoline-induced apoptosis and autophagy”.
